What all share (experiment): NCI-60 cell line screen, 48 h
The test system of experiment [1] is HCT-15 colon.
The subject of experiment [2] is HOP-62 NSCLC.
Experiment [3] concerns K-562 leukemia.
Experiment [4] has as its system MDA-MB-231 breast.
Experiment [5] relates to OVCAR-3 ovarian.
For experiment [6], the system named is OVCAR-5 ovarian.
Experiment [7] deals with RXF 393 renal.
Experiment [8] concerns SK-MEL-5 melanoma.
Experiment [9] has as its system U251 CNS.
The test system of experiment [10] is UACC-257 melanoma.

Molecules are shown by their SMILES.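 Grown in 96-well plates, cells were treated for 48 hours with each compound at five concentrations. Insufficient inhibition: endpoint recorded as highest concentration tested. GI50: concentration for 50% inhibition of growth. Definition used: TGI = concentration required for complete inhibition of growth.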

Consider `COc1ccc(-c2nnc(N3CCN(C(=O)CN4CCN(c5ccc(Cl)cc5)CC4)CC3)nc2-c2ccc(OC)cc2)cc1`, for which the GI50 in experiment [1] was 15.8 µM; in experiment [2], 26.2 µM; in [3] it was 15.2 µM; in experiment [4] it was 45.9 µM; in experiment [5], 28.7 µM; in experiment [6] it was > 100 µM. For the same compound, the GI50 in experiment [7] is 18.9 µM; in experiment [8], 7.91 µM; in [9] it was 15 µM; in [10], 59.4 µM. Besides, the TGI is > 100 µM in experiment [1]; 81.1 µM in [2]; > 100 µM in experiment [3]; > 100 µM in [4]; > 100 µM in experiment [5]; > 100 µM in [6]. Besides, the TGI in experiment [7], in experiment [8], in [9] and in experiment [10] was > 100 µM in each case.

`OCC#Cc1ccccc1C#Cc1ccc(C#Cc2ccccc2C#CCO)s1`: the GI50 is 25.3 µM in experiment [1]; 22.6 µM in experiment [2]; 64 µM in [3]; 18.9 µM in experiment [4]; 12.8 µM in experiment [5]; 22.1 µM in [6]. For the same compound, the GI50 was 19.6 µM in [7], 16.3 µM in [8], 20.1 µM in [9] and 22.1 µM in [10]. The TGI in [1] was 91.1 µM; in experiment [2], 53.7 µM; in [3], > 100 µM; in experiment [4], 53.5 µM; in [5] it was 25.4 µM; in experiment [6] it was 46.5 µM. For the same compound, the TGI in experiment [7] was 39.6 µM; in [8], 31.2 µM; in experiment [9], 42.3 µM; in [10], 42.7 µM.

Turning to `Oc1c(I)cc(-c2nc3ccccc3s2)cc1CN(Cc1ccccn1)Cc1ccccn1`, the GI50 is 0.379 µM in experiment [1]; 0.332 µM in [2]; 0.385 µM in experiment [3]; 0.217 µM in [4]; 0.534 µM in experiment [5]; 0.928 µM in [6]. Moreover, the GI50 in experiment [7] was 1.08 µM; in [8], 0.179 µM; in experiment [9] it was 0.267 µM; in experiment [10] it was 0.87 µM. Besides, the TGI is > 100 µM in experiment [1]; 68.3 µM in [2]; > 100 µM in [3]; 10.4 µM in [4]; 11.7 µM in [5]; 53.2 µM in experiment [6]. The TGI was 5.61 µM in experiment [7], 0.438 µM in [8], 12.9 µM in [9] and > 100 µM in [10].

For `CCCCCCC#CC#Cc1cccc(=O)o1`, the GI50 was 1.67 µM in experiment [1]; 2.65 µM in experiment [2]; 7.33 µM in experiment [3]; 1.64 µM in [4]; 2.04 µM in experiment [5]; 2.25 µM in experiment [6]. The GI50 in [7] is 1.72 µM; in [8] it was 0.304 µM; in experiment [9] it was 2.07 µM; in experiment [10], 2.21 µM. Also, the TGI in [1] is 3.64 µM; in experiment [2], 8.48 µM; in experiment [3], > 100 µM; in experiment [4] it was 3.72 µM; in experiment [5], 4.8 µM; in experiment [6] it was 4.95 µM. Further, the TGI in [7] is 4.65 µM; in [8], 0.994 µM; in experiment [9] it was 4.92 µM; in experiment [10], 7.87 µM.

`O=S(=O)(NCCNc1cc(-c2cn(-c3ccccc3)nc2-c2cccc(O)c2)ccn1)c1ccc(Cl)cc1`: the GI50 in experiment [1] is 2.14 µM; in experiment [2] it was 2.87 µM; in experiment [3], 1.98 µM; in experiment [4], 2.14 µM; in [5], 2.06 µM; in experiment [6], 2.66 µM. In addition, the GI50 in experiment [7] is 2.86 µM; in experiment [8], 2.02 µM; in experiment [9], 3.21 µM; in [10], 3.39 µM. Further, the TGI in [1] is 6.42 µM; in experiment [2], 13.7 µM; in [3] it was 5.4 µM; in [4], 5.56 µM; in [5] it was 5.05 µM; in experiment [6], 11 µM. Besides, the TGI in [7] was determined as 10.1 µM; in experiment [8] it was 4 µM; in experiment [9], 11.4 µM; in experiment [10], 10.3 µM.

Take `C[C@]12C3CC[C@@]4(CO)C[C@]3(CCC1[C@](C)(C(=O)O)CC[C@@H]2O)CC4=O` (stereo not given in full): the GI50 in [1], in experiment [2], in [3], in experiment [4], in experiment [5] and in experiment [6] was > 100 µM each time. Also, the GI50 in [7], in experiment [8], in [9] and in experiment [10] was > 100 µM each time. Also, the TGI in [1], in [2], in experiment [3], in experiment [4], in experiment [5] and in experiment [6] was > 100 µM each time. The TGI in experiment [7], in experiment [8], in experiment [9] and in [10] was > 100 µM in each case.

As to `O=C(Nc1ccc(Cl)cc1)c1cc(S(=O)(=O)Nc2nnc(-c3ccccc3)c(-c3ccccc3)n2)c(SCc2ccccc2)cc1Cl`, the GI50 was 32.8 µM in [1]; 26.6 µM in [2]; 25 µM in [3]; 19.3 µM in experiment [4]; 17.1 µM in [5]; 36.4 µM in experiment [6]. Further, the GI50 in experiment [7] was 0.896 µM; in [8], 18.1 µM; in experiment [9], 20.7 µM; in experiment [10], 21.9 µM. The TGI in experiment [1] is > 64.2 µM; in experiment [2] it was > 58.5 µM; in [3], > 100 µM; in [4], > 56.2 µM; in [5], 41.2 µM; in experiment [6], > 58 µM. In addition, the TGI was > 57.7 µM in experiment [7], 39.4 µM in experiment [8], 51.3 µM in experiment [9] and 61.3 µM in experiment [10].

(Values after PubChem BioAssay (NCI).)
